In this experiment the test system is Staphylococcus aureus, Escherichia coli and Pseudomonas aeruginosa. The experiment in a line: preservative efficacy test, judgment of immediate effectiveness over all microbial species. The class given is cell-based. How it is done: As the test microorganism, Staphylococcus aureus (ATCC 6538), Escherichia coli (ATCC 8739) and Pseudomonas aeruginosa (ATCC 9027) were used. Each test microorganism was inoculated on the surface of a slant agar medium and precultured. The preculture was conducted using a soybean casein digest agar medium at 30-35° C. for 18-24 hr.
An emulsion composition to be subjected to the test was used as a sample, and the sample was dispensed to 5 sterilized stoppered test tubes by 10 mL each. A precultured test microorganism was added to the sample such that the cell count was 10^5-10^6 cells/mL to give a mixed sample. The test microorganism was singly added to the sample. The mixed sample was preserved at 20-25° C. with protection from light.
At 6 hr and 24 hr from the start of the preservation, 1 mL of each mixed sample was taken, and the solution was diluted with saline (9 mL). Similar dilution was performed 2-3 times and each diluted solution (1 mL) was dispensed to a sterilized petri dish, and then, 0.1 (w/v) % lecithin-0.7 (w/v) % polysorbate 80-added soybean casein digest agar medium was added to the bacteria, and the mixture was cultured at 30-35° C. for about 3 days. The colony forming units were measured, and the viable cell count per 1 mL of the mixed sample was calculated.
When the viable cell counts of all microbial species decreased by 3 log or more after 24 hr from the start of the test, an immediate effectiveness of preservative efficacy was judged to be present and the judgment was compatible. When further immediate effectiveness of preservative efficacy is demanded, it was judged to be present when the viable cell counts of all microbial species decreased by 3 log or more after 24 hr from the start of the test and the viable cell counts of all microbial species decreased by 2 log or more after 6 hr from the start of the test, and the judgment was compatible.

Where [1] appears, read: added as preservative to difluprednate emulsion composition.

Where a name gives a salt, the structure may show the parent alone. Read-outs that look alike come from different tables or passages of the source.

Regarding benzalkonium chloride, under setting [1], the “immediate effectiveness of preservative efficacy” value is listed as “not found”.

Turning to `Oc1cccc2cccnc12` [oxyquinoline sulfate], the “immediate effectiveness of preservative efficacy” value was “not found”.

As to `C/C=C/C=C/C(=O)O` [sorbic acid], the “immediate effectiveness of preservative efficacy” value under setting [1] was “not found”.

As to `O=S(=O)([O-])[O-].[Cu+2]` [copper sulfate], the “concentration at which excellent immediate effectiveness of preservative efficacy was obtained” value is on record as “not less than 0.0005 (w/v) %”.

Turning to `O=[N+]([O-])[O-].[Ag+]` [silver nitrate], the “concentration at which further (excellent) immediate effectiveness was found” value (as silver ion, 6 hr and 24 hr criteria, in difluprednate emulsion) is on record as “not less than 0.005 (w/v) %”. For the same compound, the “concentration at which immediate effectiveness of preservative efficacy was found” value (as silver ion, 24 hr criterion, in difluprednate emulsion) was “not less than 0.0005 (w/v) %”.

Source of the values: patent US20150366879A1, “DIFLUPREDNATE EMULSION COMPOSITION CONTAINING ANTIMICROBIAL METAL” (SENJU PHARMACEUTICAL CO., LTD., priority 2013, published 2015).
